Active and inactive are the calls of the source. No cut-off for these calls is given here.
Legend:
HepG2 = test: Inhibition of apoB secretion in human HepG2 cells after 40 hrs by ELISA; type: functional, cell-based; settings: HepG2, 40 h
Mus musculus [1] = test: Increase in peptide YY level in 3-day high fat diet fed C57BL/6 mouse at 10 mg/kg, po daily for 3 days; type: functional, organism-based; design: dose 10 mg/kg
Mus musculus [2] = test: Decrease in plasma triglyceride level in […] C57BL/6 mouse at 10 mg/kg, po daily for 3 days measured after 6 hrs; type: functional
[3] = Inhibition of MTP from dog liver microsomes by scintillation counting; design: species or system Canis lupus familiaris, Microsome
Mus musculus [4] = test: Decrease in total food intake in 3-day high fat diet fed C57BL/6 mouse at 10 mg/kg, po daily for 3 days; type: functional
Mus musculus [5] = test: Decrease in body weight in […] at 10 mg/kg, po daily for 3 days; type: functional, C57BL/6

`CC(C)(C)c1ccc(-c2ccccc2C(=O)Nc2ccc3nc(C(=O)N[C@H](C(=O)N4CCC(F)(F)C4)c4ccccc4)sc3c2)cc1` showed an IC50 (HepG2) of 8.8 nM.
In the case of `CN(Cc1ccc(F)cc1)C(=O)[C@@H](NC(=O)c1nc2ccc(NC(=O)c3ccccc3-c3cn4ccsc4n3)cc2s1)c1ccccc1`, the Activity (Mus musculus [1]) is reported as “inactive”, the Activity (Mus musculus [2]) is reported as “inactive” and the IC50 (HepG2) is reported as 23.7 nM. For the same molecule, the IC50 [3] was 14.8 nM, the Activity (Mus musculus [4]) was “inactive” and the Activity (Mus musculus [5]) was “inactive”.
In the case of `Cc1cccc(C(=O)Nc2ccc3nc(C(=O)N[C@H](C(=O)N(C)Cc4ccc(F)cc4)c4ccccc4)sc3c2)c1-c1ccc(C(C)(C)C)cc1`, the Activity (Mus musculus [1]) is reported as “Active”, the Activity (Mus musculus [2]) is reported as “Active” and the IC50 (HepG2) is reported as 2.9 nM. The IC50 [3] was 4.7 nM, the Activity (Mus musculus [4]) was “Active” and the Activity (Mus musculus [5]) was “Active”.
`CCCCN(C)C(=O)[C@@H](NC(=O)c1nc2ccc(NC(=O)c3ccccc3-c3ccc(C(C)(C)C)cc3)cc2s1)c1ccccc1` gave an IC50 (HepG2) of 6.5 nM and an IC50 [3] of 9.5 nM.
With `CN(Cc1ccc(F)cc1)C(=O)[C@@H](NC(=O)c1nc2ccc(NC(=O)c3ccccc3-c3cn4ccccc4n3)cc2s1)c1ccccc1` the Activity (Mus musculus [1]) was “inactive”, the Activity (Mus musculus [2]) was “inactive” and the IC50 (HepG2) was 4.2 nM. The IC50 [3] was 13 nM, the Activity (Mus musculus [4]) was “inactive” and the Activity (Mus musculus [5]) was “inactive”.
In the case of `CN(Cc1ccc(F)cc1)C(=O)[C@@H](NC(=O)c1nc2ccc(NC(=O)c3ccccc3-c3ccc(C(C)(C)C)cc3)cc2s1)c1ccccc1`, the Activity (Mus musculus [1]) is reported as “Active”, the Activity (Mus musculus [2]) is reported as “Active” and the IC50 (HepG2) is reported as 2.7 nM. For the same molecule, the IC50 [3] was 3 nM, the Activity (Mus musculus [4]) was “Active” and the Activity (Mus musculus [5]) was “Active”.
In the case of `CN(Cc1ccc(F)cc1)C(=O)[C@@H](NC(=O)c1nc2ccc(NC(=O)c3ccccc3-c3nc(C(C)(C)C)cs3)cc2s1)c1ccccc1`, the Activity (Mus musculus [1]) is reported as “inactive”, the Activity (Mus musculus [2]) is reported as “inactive” and the IC50 (HepG2) is reported as 4 nM. For the same molecule, the IC50 [3] was 4.6 nM, the Activity (Mus musculus [4]) was “inactive” and the Activity (Mus musculus [5]) was “inactive”.
In the case of `Cc1csc2nc(-c3ccccc3C(=O)Nc3ccc4nc(C(=O)N[C@H](C(=O)N(C)Cc5ccc(F)cc5)c5ccccc5)sc4c3)cn12`, the Activity (Mus musculus [1]) is reported as “inactive”, the Activity (Mus musculus [2]) is reported as “inactive” and the IC50 (HepG2) is reported as 6.9 nM. The IC50 [3] was 16.9 nM, the Activity (Mus musculus [4]) was “inactive” and the Activity (Mus musculus [5]) was “inactive”.

Source: ChEMBL document CHEMBL1153899, “Discovery of benzothiazole derivatives as efficacious and enterocyte-specific MTP inhibitors” (Bioorg Med Chem Lett, 2009)
